Legend:
[1] = test system: human iPSC-derived cardiomyocytes; settings: standard donor 1434 compared to the other 4 donors; ref [36]; cited from earlier work
[2] = test system: human iPSC-derived cardiomyocytes; test: Ca2+ flux assay; type: cell-based; settings: for critical endpoint (most sensitive phenotype): phenotype with lowest POD for the population median

## COc1cc(N)c(Cl)cc1C(=O)NC1CCN(CCCOc2ccc(F)cc2)CC1OC (centres unmarked) [Cisapride, cisapride]
[1]
  efficacy (Emax, maximum increase in decay-rise ratio): greatest efficacy

## CC(C)NCC(O)c1ccc(O)c(O)c1 (centres unmarked) [Isoproterenol]
[2]; 10 μM, 90 min exposure, 5 donors, response vs vehicle control
  effect on beat rate ([+] chronotropy positive control): expected effects on beat rate

## COCCc1ccc(OCC(O)CNC(C)C)cc1 (centres unmarked) [metoprolol]
[2]
  critical endpoint (most sensitive phenotype): did not exhibit decay-rise ratio as the critical endpoint

## CC(C)NCC(O)COc1cccc2ccccc12 (centres unmarked) [propranolol]
[2]; 0.5 μM, 90 min exposure, 5 donors, response vs vehicle control
  effect on beat rate ([-] chronotropy positive control): expected effects on beat rate

## CC/C(=C(\c1ccccc1)c1ccc(OCCN(C)C)cc1)c1ccccc1 [tamoxifen]
[2]
  critical endpoint (most sensitive phenotype): did not exhibit decay-rise ratio as the critical endpoint

Source: PMC8762671 (Chemical research in toxicology, 2021)
